We go through 1 molecule from patent US10071100B2, “Therapeutic nanoparticles comprising a therapeutic agent and methods of making and using the same” (PFIZER INC., priority 2014, dated 2018).

As a reminder, the pKa is the negative logarithm of the acid dissociation constant. As usually defined, the logD is the decadic logarithm of the distribution of all forms, ionised or not, between an organic phase and buffer at a given pH. In general, AUC refers to concentration integrated over time. A low value points to less exposure. Broadly, the half-life is how long it takes for the measured level to halve. High values mean slow loss, low ones fast loss.

Data set [1] can be described thus: pKa (acid dissociation constant). Type of data set: physicochemical. The conditions noted are these: protonated form of the therapeutic agent; read-out: first pKa. From the text:
It is described in U.S. Pat. No. 8,039,469, the contents of which are incorporated by reference. […] As indicated above, it is a base. It is a protonatable nitrogen-containing therapeutic agent. As used herein, a “protonatable nitrogen-containing therapeutic agent” includes any pharmaceutically active agent that contains at least one nitrogen-containing functional group that is capable of being protonated. In other words, the therapeutic agent has a nitrogen atom thereon which has a lone pair of electrons that could potentially accept a proton. The pKa refers to the acid dissociation constant on a logarithmic scale of the corresponding protonated form of the therapeutic agent. In other words, if a proton (H+) were present at the nitrogen atoms where there is an arrow indicated, the therapeutic agent would have the pKa indicated below:
The pKa information for the most basic nitrogen (bottom) and a less basic but still protonatable nitrogen (upper) are shown above. ACD is a calculated number using standard techniques known in the art, such as described in Liao C Z, Nicklaus M C. Comparison of nine programs predicting pK(a) values of pharmaceutical substances. J. Chem. Inform. Model. 49(12):2801-2812, 2009. It has to be understood that the pKa of the therapeutic agent refers to the protonated form thereof. […]

Data set [2] can be described thus: physchem. Type of data set: physicochemical. From the text:
It is described in U.S. Pat. No. 8,039,469, the contents of which are incorporated by reference. […] As indicated above, it is a base. It is a protonatable nitrogen-containing therapeutic agent. As used herein, a “protonatable nitrogen-containing therapeutic agent” includes any pharmaceutically active agent that contains at least one nitrogen-containing functional group that is capable of being protonated. In other words, the therapeutic agent has a nitrogen atom thereon which has a lone pair of electrons that could potentially accept a proton. The pKa refers to the acid dissociation constant on a logarithmic scale of the corresponding protonated form of the therapeutic agent. In other words, if a proton (H+) were present at the nitrogen atoms where there is an arrow indicated, the therapeutic agent would have the pKa indicated below: […]

The nature of data set [3]: pharmacokinetics of nanoparticles in Wistar Han rats. Type of data set: in vivo. Conditions: rat; male Wistar Han rats, intravenous 1 mg/kg bolus, plasma. On the procedure:
The protocol was as follows: Male Wistar Han rats (approximately six weeks in age; n=4/group) with indwelling jugular vein cannulae were dosed intravenously with a 1 mg/kg bolus of Formulation A, B, and C nanoparticles or Formulation A, B, and C nanoparticles diluted in 0.9% saline. At various times after dosing, serial blood collections were made from the jugular vein cannulae and plasma concentrations of therapeutic agent were quantitated by LC-MS/MS.

For the molecule `CN(C)C1CCN(C(=O)c2ccc(NC(=O)Nc3ccc(-c4nc(N5CCOCC5)nc(N5CCOCC5)n4)cc3)cc2)CC1` [therapeutic agent, 1-(4-{[4-(dimethylamino)piperidin-1-yl]carbonyl}phenyl)-3-[4-(4,6-dimorpholin-4-yl-1,3,5-triazin-2-yl)phenyl]urea], in data set [1], the pKa is about 6.7. The same molecule returned a logD in data set [2] (pH 6.5) of 0.212. This molecule returned a logD in data set [2] (pH 7.4) of 1.08. In data set [3], this molecule had an AUC of 920 ng·h/mL and a half-life of 13.2 h.
